Earlier results on four molecules are cited in patent publication US20230181442A1, “METHOD FOR DYEING KERATIN MATERIAL, COMPRISING THE USE OF AN ORGANOSILICON COMPOUND, HYALURONIC ACID (SALT), A DYEING COMPOUND AND A POST-TREATMENT AGENT” (Henkel AG & Co. KGaA, priority 2020, published 2023).

The conditions of the series: for solubility in water: 25° C.

With `O=S(=O)(O)c1ccc(N=Nc2c(O)ccc3ccccc23)cc1` [Acid Orange 7, 4-[(2-hydroxy-1-naphthyl)azo]benzene sulfonate], the solubility in water entry is “more than 7 g/L”. On to `O=[N+]([O-])c1cc([N+](=O)[O-])c2ccc(S(=O)(=O)O)cc2c1O` [Acid Yellow 9, 8-hydroxy-5,7-dinitro-2-naphthalenesulfonic acid], for which the solubility in water entry is on record as “above 40 g/L”. For `CCN(Cc1cccc(S(=O)(=O)O)c1)c1ccc(C(=C2C=CC(=[N+](CC)Cc3cccc(S(=O)(=O)O)c3)C=C2)c2ccccc2S(=O)(=O)[O-])cc1` [Acid Blue 9], the solubility in water entry is recorded as “more than 20 wt. %”. `O=C(O)C1=NN(c2ccc(S(=O)(=O)O)cc2)C(=O)C1N=Nc1ccc(S(=O)(=O)O)cc1` (stereo not shown) [Acid Yellow 23, 4,5-dihydro-5-oxo-1-(4-sulfophenyl)-4-((4-sulfophenyl)azo)-1H-pyrazole-3-carboxylic acid]: the “solubility in water (in words)” value (water at 25° C.) is on record as “highly soluble”.
